Measured values reported in ChEMBL document CHEMBL1124209, “Phosphonoformate and phosphonoacetate derivatives of 5-substituted 2'-deoxyuridines: synthesis and antiviral activity” (1988).
≈ marks a conversion by molar mass, not a printed value.

Columns and labels:
Type in all cases: functional
[1] = test system: Human alphaherpesvirus 1; test: Mean survival time in HSV-1 infected mice, after peroral administration of 5 mg/kg of compound; details: route oral
[2] = test system: Human alphaherpesvirus 1; test: Minimum inhibitory concentration of compound causing 50% inhibition of cytopathic effect induced by HSV-1(thymidine kinase deficient) in PRK cells
[3] = organism: Oryctolagus cuniculus; test: Minimum cytotoxic concentration of compound causing toxic effects on uninfected cells
[4] = test system: Human alphaherpesvirus 1; test: Mean survival time in HSV-1 infected mice, after intraperitoneal administration of 0.5 mg/kg of compound
[5] = test system: Human alphaherpesvirus 1; test: Minimum inhibitory concentration causing 25% inhibition cytopathic effect induced by Herpes simplex virus(HSV) -1 (thymidine kinase deficient) in HEp-2 cells
[6] = test system: Human alphaherpesvirus 1; test: Minimum inhibitory concentration causing 25% inhibition of cytopathic effect induced by Herpes simplex virus(HSV) -1 (thymidine kinase deficient) in vero cells
[7] = test system: Human alphaherpesvirus 1; test: Minimum inhibitory concentration causing 25% inhibition cytopathic effect induced by Herpes simplex virus-1 (Brand) in HEp-2 cells
[8] = test system: Human alphaherpesvirus 1; test: Minimum inhibitory concentration of compound causing 50% inhibition of cytopathic effect induced by HSV-1 in PRK cells
[9] = test system: Mus musculus; test: Cumulative lesions in HSV-1 infected mice, after administration of 0.1 % of compound intracutaneously
[10] = test system: Human alphaherpesvirus 2; test: Minimum inhibitory concentration causing 25% inhibition cytopathic effect induced by Herpes simplex virus(HSV) -2 (thymidine kinase deficient) in vero cells
[11] = test system: Human alphaherpesvirus 1; test: Minimum inhibitory concentration causing 25% inhibition of cytopathic effect induced by Herpes simplex virus-1 (Brand) in vero cells
[12] = test system: Human alphaherpesvirus 1; test: Cumulative mortality in percent of HSV-1 infected mice, after intraperitoneal administration of 0.5 mg/kg of compound
[13] = test system: Mus musculus; test: Cumulative lesions in HSV-1 infected mice, after administration of 0.3 % of compound intracutaneously
[14] = test system: Mus musculus; test: Mean duration of lesions in HSV-1 infected mice, after administration of 0.1 % of compound intracutaneously
[15] = test system: Human alphaherpesvirus 1; test: Minimum inhibitory concentration causing 25% inhibition of cytopathic effect induced by herpes simplex virus (HSV)-1 (K979) in vero cells.
[16] = test system: Human alphaherpesvirus 1; test: Minimum inhibitory concentration causing 25% inhibition of cytopathic effect induced by Herpes simplex virus-1 (K979) in HEp-2 cells
[17] = test system: Human alphaherpesvirus 2; test: Minimum inhibitory concentration of compound causing 50% inhibition of cytopathic effect induced by HSV-2 in PRK cells
[18] = organism: Oryctolagus cuniculus; test: Minimum cytotoxic concentration causing toxic effects on uninfected cells in rabbit
[19] = test system: Human alphaherpesvirus 1; test: Cumulative mortality in percent of HSV-1 infected mice, after peroral administration of 5 mg/kg of compound; details: route oral
[20] = test system: Mus musculus; test: Mean duration of lesions in HSV-1 infected mice, after administration of 0.3 % of compound intracutaneously
[21] = test system: Human alphaherpesvirus 2; test: Minimum inhibitory concentration causing 25% inhibition of cytopathic effect induced by Herpes simplex virus(HSV) -2 (thymidine kinase deficient) in HEp-2 cells
[22] = test system: Mus musculus; test: Cumulative mortality in percent of HSV-1 (KOS strain) infected mice, after peroral administration of 100 mg/kg of compound; details: route oral
[23] = test system: Human alphaherpesvirus 1; test: Minimum inhibitory concentration causing 50% inhibition of cytopathic effect induced by HSV-1(thymidine kinase deficient) in PRK cells
[24] = test system: Human alphaherpesvirus 1; test: (§1) Minimum inhibitory concentration causing 50% inhibition of cytopathic effect induced by HSV-2 in PRK cells
[25] = test system: Human alphaherpesvirus 1; test: Minimum inhibitory concentration causing 50% inhibition of cytopathic effect induced by HSV-1 in PRK cells
[26] = test system: Human alphaherpesvirus 2; test: as §1
[27] = test system: Mus musculus; test: Cumulative mortality in percent of HSV-1 infected mice, after peroral administration of 100 mg/kg of compound; details: route oral
[28] = test system: Human alphaherpesvirus 1; test: Minimum inhibitory concentration causing 50% inhibition of cytopathic effect induced by HSV-1 (thymidine kinase deficient) in PRK cells
[29] = test system: Human alphaherpesvirus 1; test: Mean survival time in HSV-1 infected mice, after intraperitoneal administration of 1 mg/kg of compound
[30] = test system: Human alphaherpesvirus 1; test: Cumulative mortality in percent of HSV-1 infected mice, after peroral administration of 10 mg/kg of compound; details: route oral
[31] = test system: Human alphaherpesvirus 1; test: Mean survival time in HSV-1 infected mice, after intraperitoneal administration of 5 mg/kg of compound
[32] = test system: Human alphaherpesvirus 1; test: Cumulative mortality in percent of HSV-1 infected mice, after peroral administration of 1 mg/kg of compound; details: route oral
[33] = test system: Human alphaherpesvirus 1; test: Minimum inhibitory concentration causing 25% inhibition of cytopathic effect induced by Herpes simplex virus(HSV) -1 (thymidine kinase deficient) in HEp-2 cells
[34] = test system: Human alphaherpesvirus 1; test: Mean survival time in HSV-1 infected mice, after peroral administration of 10 mg/kg of compound; details: route oral
[35] = test system: Human alphaherpesvirus 1; test: Cumulative mortality in percent of HSV-1 infected mice, after intraperitoneal administration of 5 mg/kg of compound
[36] = test system: Human alphaherpesvirus 1; test: Cumulative mortality in percent of HSV-1 infected mice, after intraperitoneal administration of 1 mg/kg of compound
[37] = test system: Human alphaherpesvirus 1; test: Mean survival time in HSV-1 infected mice, after peroral administration of 1 mg/kg of compound; details: route oral
[38] = test system: Human alphaherpesvirus 2; test: Minimum inhibitory concentration causing 25% inhibition of cytopathic effect induced by Herpes simplex virus(HSV) -2 (thymidine kinase deficient) in vero cells
[39] = test system: Human alphaherpesvirus 1; test: Minimum inhibitory concentration causing 25% inhibition of cytopathic effect induced by Herpes simplex virus(HSV) -1 (Brand) in HEp-2 cells

O=c1[nH]c(=O)n([C@H]2C[C@H](O)[C@@H](CO)O2)cc1CCCl
MST [1]: 19 days | MIC [2]: > 1370 µM | MTC [3]: >1366 µM | MST [4]: 16.7 days | MIC [5]: > 342 µM | MIC [6]: 34.2 µM (≈ 9.94 µg/mL) | MIC [7]: 0.1 µM (≈ 0.0291 µg/mL) | MIC [8]: 0.3 µM (≈ 0.0872 µg/mL) | lesions [9]: 40 | MIC [10]: > 342 µM | MIC [11]: 0.03 µM (≈ 0.00872 µg/mL) | CMP [12]: 35 | lesions [13]: 17 | MDL [14]: 2.4 days | MIC [15]: 102 µM (≈ 29.7 µg/mL) | MIC [16]: 10.2 µM (≈ 2.97 µg/mL) | MIC [17]: 34.2 µM (≈ 9.94 µg/mL) | MTC [18]: 1127 µM | CMP [19]: 10 | MDL [20]: 0.9 days | MIC [21]: > 342 µM

CCOC(=O)CP(=O)(O)OC[C@H]1O[C@@H](n2cc(/C=C/Br)c(=O)[nH]c2=O)C[C@@H]1O
CMP [22]: 80 | MIC [23]: > 828 µM | MTC [18]: >=828 uM | MIC [24]: > 828 µM | MIC [25]: 41.4 µM (≈ 20 µg/mL)

CCOC(=O)P(=O)(O)OC[C@H]1O[C@@H](n2cc(/C=C\Br)c(=O)[nH]c2=O)C[C@@H]1O
MIC [23]: > 81.1 µM | MTC [18]: >=81.1 uM | MIC [26]: > 81.1 µM | MIC [25]: 4.1 µM (≈ 1.92 µg/mL) | CMP [27]: 70

COC(=O)P(=O)(O)OC[C@H]1O[C@@H](n2cc(/C=C\Br)c(=O)[nH]c2=O)C[C@@H]1O
CMP [22]: 50 | MTC [18]: >=87.9 uM | MIC [26]: > 87.9 µM | MIC [28]: > 87.9 µM | MIC [25]: 1.5 µM (≈ 0.683 µg/mL)

CCOC(=O)CP(=O)(OC)OC[C@H]1O[C@@H](n2cc(I)c(=O)[nH]c2=O)C[C@@H]1O (stereo partly specified)
MIC [5]: 1.9 µM (≈ 0.985 µg/mL) | MIC [6]: 57.9 µM (≈ 30 µg/mL) | MIC [7]: 5.8 µM (≈ 3.01 µg/mL) | MIC [10]: > 193 µM | MIC [11]: 1.9 µM (≈ 0.985 µg/mL) | MIC [15]: 57.9 µM (≈ 30 µg/mL) | MIC [16]: 57.9 µM (≈ 30 µg/mL) | MTC [18]: 193 µM | MIC [21]: 193 µM (≈ 100 µg/mL)

O=C(CP(=O)(O)O)OC[C@H]1O[C@@H](n2cc(CCCl)c(=O)[nH]c2=O)C[C@@H]1O
MST [29]: 16 days | MST [1]: 15.3 days | MST [4]: 12.2 days | MIC [6]: 72.7 µM (≈ 30 µg/mL) | MIC [7]: 24.2 µM (≈ 9.99 µg/mL) | CMP [30]: 42 | MST [31]: 18.3 days | MIC [11]: 24.2 µM (≈ 9.99 µg/mL) | CMP [32]: 67 | MIC [33]: 242 µM (≈ 99.9 µg/mL) | MST [34]: 16.3 days | CMP [12]: 75 | CMP [35]: 17 | lesions [13]: 40 | MIC [15]: > 242 µM | MIC [16]: > 242 µM | MTC [18]: 800 µM | CMP [19]: 50 | CMP [36]: 33 | MDL [20]: 2.4 days | MST [37]: 11.8 days | MIC [21]: 242 µM (≈ 99.9 µg/mL) | MIC [38]: 72.7 µM (≈ 30 µg/mL)

COP(=O)(CC(=O)OC[C@H]1O[C@@H](n2cc(I)c(=O)[nH]c2=O)C[C@@H]1O)OC
MIC [6]: 2 µM (≈ 1.01 µg/mL) | MIC [11]: 0.6 µM (≈ 0.303 µg/mL) | MIC [33]: > 198 µM | MIC [15]: 5.9 µM (≈ 2.97 µg/mL) | MIC [16]: 198 µM (≈ 99.8 µg/mL) | MTC [18]: 655 µM | MIC [38]: 59.5 µM (≈ 30 µg/mL) | MIC [39]: 0.2 µM (≈ 0.101 µg/mL)
